# Test results reported in ChEMBL document CHEMBL1141677, “Synthesis and structure-antibacterial activity of triazolyl oxazolidinones containing long chain acyl moiety” (2008).
# Columns and labels:
# Assay type in all cases: functional
# [1] = test system: Staphylococcus; assay: Antibacterial activity against methicillin-resistant coagulase-negative Staphylococcus clinical isolate after 18 hrs by agar dilution method
# [2] = test system: Enterococcus; assay: Antibacterial activity against vancomycin-resistant Enterococcus after 18 hrs by agar dilution method
# [3] = test system: Moraxella catarrhalis; assay: Antibacterial activity against Moraxella catarrhalis clinical isolate after 18 hrs by agar dilution method
# [4] = test system: Staphylococcus; assay: Antibacterial activity against methicillin-susceptible coagulase-negative Staphylococcus clinical isolate after 18 hrs by agar dilution method
# [5] = test system: Staphylococcus aureus; assay: Antibacterial activity against methicillin-resistant Staphylococcus aureus clinical isolate after 18 hrs by agar dilution method; conditions: for MIC: Staphylococcus aureus, 18 h
# [6] = test system: Escherichia coli; assay: Antibacterial activity against Escherichia coli ATCC 25922 after 18 hrs by agar dilution method; conditions: ATCC 25922, 18 h
# [7] = test system: Enterococcus; assay: Antibacterial activity against vancomycin-sensitive Enterococcus after 18 hrs by agar dilution method
# [8] = test system: Staphylococcus aureus; assay: Antibacterial activity against methicillin-susceptible Staphylococcus aureus clinical isolate after 18 hrs by agar dilution method
# [9] = test system: Haemophilus influenzae; assay: Antibacterial activity against Haemophilus influenzae clinical isolate after 18 hrs by agar dilution method
# [10] = test system: Staphylococcus aureus; assay: Antibacterial activity against Staphylococcus aureus ATCC 25923 after 18 hrs by agar dilution method in presence of 50% human plasma; conditions: ATCC 25923, Plasma
# [11] = test system: Staphylococcus aureus; assay: Antibacterial activity against Staphylococcus aureus ATCC 25923 after 18 hrs by agar dilution method; conditions: for MIC: Staphylococcus aureus, ATCC 25923, 18 h
# [12] = test system: Streptococcus pneumoniae; assay: Antibacterial activity against penicillin-resistant Streptococcus pneumoniae after 18 hrs by agar dilution method
SMILES,MIC [1],MIC [2],MIC [3],MIC [4],MIC [5],MIC [6],MIC [7],MIC [8],MIC [9],MIC [10],-logMIC [5],-logMIC [11],MIC [11],MIC [12]
CC(=O)NC[C@H]1CN(c2ccc(N3CCOCC3)c(F)c2)C(=O)O1 [LINEZOLID],1 µg/mL,2 µg/mL,≥ 8 µg/mL,0.25 µg/mL,0.5 µg/mL,≥ 8 µg/mL,0.5 µg/mL,1 µg/mL,≥ 8 µg/mL,,,,,
CCCCCCCCC(=O)N1CCN(c2ccc(N3C[C@H](Cn4ccnn4)OC3=O)cc2F)CC1,4 µg/mL,8 µg/mL,≥ 8 µg/mL,4 µg/mL,4 µg/mL,≥ 8 µg/mL,8 µg/mL,8 µg/mL,≥ 8 µg/mL,> 16 µg/mL,2.09,1.78,> 16 µg/mL,> 16 µg/mL
CCCCCCCC(=O)N1CCN(c2ccc(N3C[C@H](Cn4ccnn4)OC3=O)cc2F)CC1,2 µg/mL,4 µg/mL,≥ 8 µg/mL,2 µg/mL,2 µg/mL,≥ 8 µg/mL,4 µg/mL,4 µg/mL,≥ 8 µg/mL,> 16 µg/mL,2.37,2.07,8 µg/mL,> 16 µg/mL
CCCCCC(=O)N1CCN(c2ccc(N3C[C@H](Cn4ccnn4)OC3=O)cc2F)CC1,1 µg/mL,4 µg/mL,≥ 8 µg/mL,1 µg/mL,2 µg/mL,≥ 8 µg/mL,4 µg/mL,4 µg/mL,≥ 8 µg/mL,> 16 µg/mL,2.35,2.05,4 µg/mL,2 µg/mL
CCCCCCCCCCCCCCCCCC(=O)N1CCN(c2ccc(N3C[C@H](Cn4ccnn4)OC3=O)cc2F)CC1,,,≥ 8 µg/mL,> 16 µg/mL,,≥ 8 µg/mL,> 16 µg/mL,> 16 µg/mL,≥ 8 µg/mL,> 16 µg/mL,,1.58,> 16 µg/mL,> 16 µg/mL
O=C(CC1CC2CCC1C2)N1CCN(c2ccc(N3C[C@H](Cn4ccnn4)OC3=O)cc2F)CC1 (some centres not stated),2 µg/mL,4 µg/mL,≥ 8 µg/mL,2 µg/mL,2 µg/mL,≥ 8 µg/mL,2 µg/mL,2 µg/mL,≥ 8 µg/mL,> 16 µg/mL,2.38,2.08,4 µg/mL,4 µg/mL
CC(C)C(=O)N1CCN(c2ccc(N3C[C@H](Cn4ccnn4)OC3=O)cc2F)CC1,1 µg/mL,1 µg/mL,≥ 8 µg/mL,1 µg/mL,1 µg/mL,≥ 8 µg/mL,1 µg/mL,1 µg/mL,≥ 8 µg/mL,2 µg/mL,2.62,2.32,2 µg/mL,0.5 µg/mL
CCCCCCCCCC(=O)N1CCN(c2ccc(N3C[C@H](Cn4ccnn4)OC3=O)cc2F)CC1,,,≥ 8 µg/mL,> 16 µg/mL,,≥ 8 µg/mL,> 16 µg/mL,> 16 µg/mL,≥ 8 µg/mL,> 16 µg/mL,,1.5,> 16 µg/mL,> 16 µg/mL
CN[C@H](CC(C)C)C(=O)N[C@H]1C(=O)N[C@@H](CC(N)=O)C(=O)N[C@H]2C(=O)N[C@H]3C(=O)N[C@H](C(=O)N[C@H](C(=O)O)c4cc(O)cc(O)c4-c4cc3ccc4O)[C@H](O)c3ccc(c(Cl)c3)Oc3cc2cc(c3O[C@@H]2O[C@H](CO)[C@@H](O)[C@H](O)[C@H]2O[C@H]2C[C@](C)(N)[C@H](O)[C@H](C)O2)Oc2ccc(cc2Cl)[C@H]1O [VANCOMYCIN],1 µg/mL,> 64 µg/mL,≥ 8 µg/mL,1 µg/mL,,≥ 8 µg/mL,0.25 µg/mL,,≥ 8 µg/mL,,,,,0.5 µg/mL
